Measurements as given in patent US9650395B2, “Antibacterial compounds and methods for use” (PTC Therapeutics, Inc., priority 2011, dated 2017).
Converted amounts (≈) assume the structure as drawn. Like-named read-outs stand apart in the source and are kept apart here.

Columns and labels:
[1] = system: super sensitive Gram-negative Escherichia coli (E. coli) BAS849; assay: Antibacterial activity, microbroth dilution MIC, E. coli BAS849; assay type: cell-based; conditions: Escherichia coli, read-out: MIC, BAS849
[2] = system: control Gram-negative E. coli 25922 strain; assay: Antibacterial activity, microbroth dilution MIC, E. coli 25922; assay type: cell-based, Escherichia coli; conditions: Escherichia coli; E. coli 25922, microbroth dilution; read-out: MIC, 25922
[3] = system: Gram-positive Staphylococcus aureus (S. aureus) 29213; assay: Antibacterial activity, microbroth dilution MIC, S. aureus 29213; assay type: cell-based; conditions: Staphylococcus aureus; S. aureus 29213, microbroth dilution; read-out: MIC, 29213
[4] = system: quinolone resistant E. coli LZ3111; assay: Antibacterial activity, MIC, quinolone resistant E. coli LZ3111; assay type: cell-based, Escherichia coli; conditions: Escherichia coli, read-out: MIC, LZ3111
Description: The antibacterial activity from a microbroth dilution method may be presented as the minimum inhibitory concentration (MIC in […]). The MIC value is the lowest concentration of a drug which prevents macroscopically visible bacterial growth under test conditions.
Mutations in these regions are known to confer a high level resistance to the quinolone class of antibiotics.

[5] = E. coli BAS849, microbroth dilution

Q: What does the source list for `CCc1c(-c2ccc(N3C[C@H]4CNC[C@H]4C3)cc2)[nH]c(=O)c(C(=O)O)c1O.Cl` [Cpd 274, 5-ethyl-6-{4-[(3aR,6aS)-hexahydropyrrolo[3,4-c]pyrrol-2(1H)-yl]phenyl}-4-hydroxy-2-oxo-1,2-dihydropyridine-3-carboxylic acid hydrochloride]?
A: MIC [1, 5]: 1 to 3.5 µg/mL; MIC [2]: 12.5 to 150 µg/mL; MIC [3]: 12.5 to 150 µg/mL; MIC [4]: 12.5 to 150 µg/mL

Q: What does the source list for `CCc1c(-c2ccc(N3CCC4(CCNCC4)C3)cc2)[nH]c(=O)c(C(=O)O)c1O.Cl` [Cpd 278, 6-[4-(2,8-diazaspiro[4.5]dec-2-yl)phenyl]-5-ethyl-4-hydroxy-2-oxo-1,2-dihydropyridine-3-carboxylic acid hydrochloride]?
A: MIC [1, 5]: < 1 µg/mL; MIC [2]: 3.5 to 12.5 µg/mL; MIC [3]: 3.5 to 12.5 µg/mL; MIC [4]: 12.5 to 150 µg/mL

Q: Which MIC [1, 5] does the source give for `CCc1c(-c2ccc(N3CCC(O)CC3)cc2)[nH]c(=O)c(C(=O)O)c1O` [Cpd 280, 5-ethyl-4-hydroxy-6-[4-(4-hydroxypiperidin-1-yl)phenyl]-2-oxo-1,2-dihydropyridine-3-carboxylic acid] here?
A: < 1 µg/mL

Q: And the MIC [2]?
A: 12.5 to 150 µg/mL (≈ 34.9 to 419 µM)

Q: And the MIC [3]?
A: 12.5 to 150 µg/mL (≈ 34.9 to 419 µM)

Q: And the MIC [4]?
A: 12.5 to 150 µg/mL (≈ 34.9 to 419 µM)

Q: With `CCc1c(-c2ccc(N3CCC(OCc4ccccc4)CC3)cc2)[nH]c(=O)c(C(=O)O)c1O` [Cpd 281, 6-{4-[4-(benzyloxy)piperidin-1-yl]phenyl}-5-ethyl-4-hydroxy-2-oxo-1,2-dihydropyridine-3-carboxylic acid] as the molecule, how does the MIC [1, 5] read?
A: 3.5 to 12.5 µg/mL (≈ 7.8 to 27.9 µM)

Q: What about the MIC [2] of the same molecule?
A: 12.5 to 150 µg/mL (≈ 27.9 to 334 µM)

Q: And the MIC [3]?
A: 12.5 to 150 µg/mL (≈ 27.9 to 334 µM)

Q: What about the MIC [4] of the same molecule?
A: 12.5 to 150 µg/mL (≈ 27.9 to 334 µM)

Q: Which results are given for `CCc1c(-c2ccc(N3CCC(OC)CC3)cc2)[nH]c(=O)c(C(=O)O)c1O` [Cpd 282, 5-ethyl-4-hydroxy-6-[4-(4-methoxypiperidin-1-yl)phenyl]-2-oxo-1,2-dihydropyridine-3-carboxylic acid]?
A: MIC [1, 5]: < 1 µg/mL; MIC [2]: 12.5 to 150 µg/mL (≈ 33.6 to 403 µM); MIC [3]: 12.5 to 150 µg/mL (≈ 33.6 to 403 µM); MIC [4]: 12.5 to 150 µg/mL (≈ 33.6 to 403 µM)

Q: Which results are given for `CCc1c(-c2ccc(N3CCC(N(Cc4ccccc4)Cc4ccccc4)CC3)cc2)[nH]c(=O)c(C(=O)O)c1O` [Cpd 283, 6-{4-[4-(dibenzylamino)piperidin-1-yl]phenyl}-5-ethyl-4-hydroxy-2-oxo-1,2-dihydropyridine-3-carboxylic acid]?
A: MIC [1, 5]: 3.5 to 12.5 µg/mL (≈ 6.51 to 23.2 µM); MIC [2]: 12.5 to 150 µg/mL (≈ 23.2 to 279 µM); MIC [3]: 12.5 to 150 µg/mL (≈ 23.2 to 279 µM); MIC [4]: 12.5 to 150 µg/mL (≈ 23.2 to 279 µM)

Q: `CCc1c(-c2ccc(N3CCC(N)CC3)cc2)[nH]c(=O)c(C(=O)O)c1O` [Cpd 284, 6-[4-(4-aminopiperidin-1-yl)phenyl]-5-ethyl-4-hydroxy-2-oxo-1,2-dihydropyridine-3-carboxylic acid] was tested. Which MIC [1, 5] did it give?
A: 3.5 to 12.5 µg/mL (≈ 9.79 to 35 µM)

Q: What about the MIC [2] of the same molecule?
A: 12.5 to 150 µg/mL (≈ 35 to 420 µM)

Q: What about the MIC [3] of the same molecule?
A: 12.5 to 150 µg/mL (≈ 35 to 420 µM)

Q: And the MIC [4]?
A: 12.5 to 150 µg/mL (≈ 35 to 420 µM)

Q: How did the MIC [1, 5] turn out when `CCc1c(-c2ccc(N3CCC(n4ccnn4)C3)cc2)[nH]c(=O)c(C(=O)O)c1O` (stereo not drawn) [Cpd 287, 5-ethyl-4-hydroxy-2-oxo-6-{4-[3-(1H-1,2,3-triazol-1-yl)pyrrolidin-1-yl]phenyl}-1,2-dihydropyridine-3-carboxylic acid] was run?
A: < 1 µg/mL

Q: And the MIC [2]?
A: 1 to 3.5 µg/mL (≈ 2.53 to 8.85 µM)

Q: What about the MIC [3] of the same molecule?
A: 3.5 to 12.5 µg/mL (≈ 8.85 to 31.6 µM)

Q: And the MIC [4]?
A: 12.5 to 150 µg/mL (≈ 31.6 to 379 µM)

Q: For `CCc1c(-c2ccc(N3CCC(C)(O)C3)cc2)[nH]c(=O)c(C(=O)O)c1O` (stereo not drawn) [Cpd 289, 5-ethyl-4-hydroxy-6-[4-(3-hydroxy-3-methylpyrrolidin-1-yl)phenyl]-2-oxo-1,2-dihydropyridine-3-carboxylic acid], which MIC [1, 5] is on record?
A: < 1 µg/mL

Q: What about the MIC [2] of the same molecule?
A: 1 to 3.5 µg/mL (≈ 2.79 to 9.77 µM)

Q: And the MIC [3]?
A: 1 to 3.5 µg/mL (≈ 2.79 to 9.77 µM)

Q: What about the MIC [4] of the same molecule?
A: 12.5 to 150 µg/mL (≈ 34.9 to 419 µM)

Q: Which MIC [1, 5] does the source give for `CCc1c(-c2ccc(N3CCC(N(C)C)C3)cc2F)[nH]c(=O)c(C(=O)O)c1O` (stereo not drawn) [Cpd 291, 6-{4-[3-(dimethylamino)pyrrolidin-1-yl]-2-fluorophenyl}-5-ethyl-4-hydroxy-2-oxo-1,2-dihydropyridine-3-carboxylic acid] here?
A: 1 to 3.5 µg/mL (≈ 2.57 to 8.99 µM)

Q: And the MIC [2]?
A: 3.5 to 12.5 µg/mL (≈ 8.99 to 32.1 µM)

Q: What about the MIC [3] of the same molecule?
A: 12.5 to 150 µg/mL (≈ 32.1 to 385 µM)

Q: What about the MIC [4] of the same molecule?
A: 12.5 to 150 µg/mL (≈ 32.1 to 385 µM)

Q: What does the source list for `CCc1c(-c2ccc(N3CC4CC3CN4C(=O)OC(C)(C)C)cc2)[nH]c(=O)c(C(=O)O)c1O` (stereo not drawn) [Cpd 294, 6-{4-[5-(tert-butoxycarbonyl)-2,5-diazabicyclo[2.2.1]hept-2-yl]phenyl}-5-ethyl-4-hydroxy-2-oxo-1,2-dihydropyridine-3-carboxylic acid]?
A: MIC [1]: < 1 µg/mL; MIC [2]: 12.5 to 150 µg/mL (≈ 27.4 to 329 µM); MIC [3]: 1 to 3.5 µg/mL (≈ 2.2 to 7.68 µM); MIC [4]: 12.5 to 150 µg/mL (≈ 27.4 to 329 µM)

Q: Which MIC [1] does the source give for `CCc1c(-c2ccc(N3CC4CC3CN4)cc2)[nH]c(=O)c(C(=O)O)c1O.O=C(O)C(F)(F)F` (stereo not drawn) [Cpd 295, 6-[4-(2,5-diazabicyclo[2.2.1]hept-2-yl)phenyl]-5-ethyl-4-hydroxy-2-oxo-1,2-dihydropyridine-3-carboxylic acid trifluoroacetate] here?
A: 1 to 3.5 µg/mL

Q: What about the MIC [2] of the same molecule?
A: 12.5 to 150 µg/mL

Q: And the MIC [3]?
A: 12.5 to 150 µg/mL

Q: And the MIC [4]?
A: 12.5 to 150 µg/mL
